From ChEMBL document CHEMBL3994661, “Mycobacterium tuberculosis chorismate mutase: A potential target for TB” (Bioorg Med Chem, 2017)
Converted amounts (≈) assume the structure as drawn.

Experiments:
[1] = Inhibition of Mycobacterium tuberculosis chorismate mutase assessed as reduction in conversion of chorismate to prephenate using chorismate as substrate after 1 to 5 mins
[2] = Inhibition of Escherichia coli chorismate mutase
Escherichia coli [3] = assay: Inhibition of Escherichia coli chorismate mutase assessed as ratio of I50 to chorismate Km
[4] = Inhibition of Mycobacterium tuberculosis H37Rv chorismate mutase assessed as reduction in conversion of chorismate to prephenate using chorismic acid as substrate by spectrophotometric method
Escherichia coli [5] = assay: Inhibition of Escherichia coli chorismate mutase assessed as ratio of IC50 to chorismate Km
[6] = test system: Mycobacterium tuberculosis; assay: Inhibition of Mycobacterium tuberculosis chorismate mutase expressed in Escherichia coli BL21 (DE3) assessed as reduction in conversion of chorismate to prephenate at 30 uM using chorismic acid as substrate after 5 mins by spectrophotometric method relative to control
[7] = Inhibition of Mycobacterium tuberculosis chorismate mutase assessed as reduction in conversion of chorismate to prephenate using chorismic acid as substrate after 5 mins by spectrophotometric method
[8] = test system: Mycobacterium tuberculosis; assay: Antibacterial activity against Mycobacterium tuberculosis H37Rv after 7 days by microplate alamar blue assay; format: functional; conditions: 168 h
[9] = Competitive inhibition of Bacillus subtilis chorismate mutase using varying levels of chorismic acid as substrate
[10] = Competitive inhibition of Escherichia coli chorismate mutase using varying levels of chorismic acid as substrate by Lineweaver-burk plot method

## Cc1ccc(C(C)C)cc1O [CARVACROL]
[1]
  IC50: 1.06 µM

## O=C(O)C1CC2CC(C(=O)O)(C=CC2O)C1 (stereo in doubt; 16) [listing 1 of 2 here]
[2]
  IC50: 430 µM

## O=C(O)C12CC3CC(C(=O)O)(C1)C2CC3O (stereo not given)
[2]
  IC50: 500 µM
Escherichia coli [3]
  Ratio: 5.6

## CCOC(=O)C1=C(C)NC(=O)N[C@H]1c1ccccc1C#CCCO
[4]
  IC50: 14.8 µM

## O=C(O)C1CC2CC(C(=O)O)(C=CC2O)C1 (stereo in doubt; 17) [listing 1 of 2 here]
[2]
  IC50: 500 µM

## O=C(O)C1CC2(C(=O)O)C=CC3C(C2)N13 (stereo not given)
Escherichia coli [5]
  Ratio: > 20

## O=C(O)C1CC2(C(=O)O)C=CC(O)C(C2)N1 (stereo in doubt; 22)
Escherichia coli [5]
  Ratio: 1.2

## O=C(O)C1CC2(C(=O)O)C=CC(O)C(C2)O1 (stereo not given)
Escherichia coli [5]
  Ratio: 0.007

## CC(=O)c1c(C(C)(C)C)[nH]c2c(S(C)(=O)=O)cc(Cl)cc12
[6]
  inhibition: 45%

## O=C1OC2CC3(C(=O)O)CC1NC(C3)C2O (stereo not given)
Escherichia coli [5]
  Ratio: > 50

## O=C1Nc2ccccc2/C1=C/c1ccc([N+](=O)[O-])cc1
[7]
  IC50: 1.01 µM
[8]
  MIC: 23.5 µM (≈ 6.26 µg/mL)

## O=C(O)C1CC2([N+](=O)[O-])C=CC(O)C(C2)O1 (stereo not given)
[9]
  Ki: 0.3 µM

## O=C1Nc2ccccc2C1=O [ISATIN]
[8]
  MIC: 340 µM (≈ 50 µg/mL)

## O=C1OC2CC3(C(=O)O)CC1N1C(C3)C21 (stereo not given)
Escherichia coli [5]
  Ratio: 42

## O=C(O)C1CC2(C(=O)O)C=CC(O)C(C2)N1 (stereo in doubt; 23)
Escherichia coli [5]
  Ratio: 18

## O=C(O)C1CC2CC(C(=O)O)(C=CC2O)C1 (stereo in doubt; 16) [listing 2 of 2 here]
Escherichia coli [3]
  Ratio: 4.8

## O=C(O)C1CC2CC(C(=O)O)(C=CC2O)C1 (stereo in doubt; 17) [listing 2 of 2 here]
Escherichia coli [3]
  Ratio: 5.6

## O=C(O)c1cccc([N+](=O)[O-])c1-c1c(C(=O)O)cccc1[N+](=O)[O-]
[10]
  Ki: 13 µM
